Reference: article PMC9855422, “Purification and Properties of Polyphenol Oxidase of Dried Volvariella bombycina” (Biology, 2022)

Tests used:
[1] = tested on: T1, dried V. bombycina PPO (polyphenol oxidase); assay: spectrophotometric oxidation at […] nm, Lineweaver-Burk; assay type: biochemical, Volvariella bombycina
T1 construct: single band about 25 kDa on SDS-PAGE

[2] = tested on: T1, dried V. bombycina PPO (polyphenol oxidase); assay: as above; assay type: biochemical, Volvariella bombycina; details: optimum pH 8.0, 15 °C

**Q.** With `Cc1ccc(O)c(O)c1` [4-methyl catechol] as the compound, how does the Km ([1]; optimum pH 9.0, 20 °C) read?
**A.** 3170 µM

**Q.** For `Oc1ccccc1O` [catechol], which Km ([1]; optimum pH 6.5, 15 °C, 0.1 M phosphate buffer) is on record?
**A.** 1670 µM

**Q.** Which Km [2] does the source give for `Oc1cccc(O)c1O` [pyrogallol] here?
**A.** 2670 µM
